Assay results reported in US20240109892A1, “POLY(ADP-RIBOSE) GLYCOHYDROLASE (PARG) INHIBITORS AGAINST COVID MACRODOMAIN AND METHODS OF USING THE SAME” (BOARD OF REGENTS, THE UNIVERSITY OF TEXAS SYSTEM, priority 2021, published 2024).
Where two headings read alike, the source gives them in different places.

Tests used:
CoV-2 Mac1 [1] = target: T1, CoV-2 Mac1 (Severe acute respiratory syndrome coronavirus 2, UniProt P0DTC1); assay: biochemical; type: binding
CoV-2 Mac1 [2] = target: T1, CoV-2 Mac1; assay: Microscale thermophoresis (MST) binding affinity measurements with CoV-2 Mac1; conditions: preliminary measurements
[3] = pH 7.5; cited from earlier work

SMILES | ΔG (CoV-2 Mac1 [1]; ITC, 25° C.) | ΔH (CoV-2 Mac1 [1]; ITC, 25° C.) | −TΔS (CoV-2 Mac1 [1]; ITC, 25° C.) | Kd (CoV-2 Mac1 [1]; ITC, 25° C., 25 mM HEPES pH 7.5, 150 mM NaCl, read-out: Kd) | Kd (CoV-2 Mac1 [1]; read-out: dissociation constant Kd) | binding to the Mac1 domain by MST (CoV-2 Mac1 [2]) | binding to the Mac1 domain by ITC (CoV-2 Mac1 [1]) | pKa of morpholine nitrogen atom [3]
Nc1ncnc2c1ncn2[C@@H]1O[C@H](COP(=O)(O)OP(=O)(O)OC[C@H]2OC(O)[C@H](O)[C@@H]2O)[C@@H](O)[C@H]1O (stereo partly shown) [ADPr, ADP-ribose] | -6.74 kcal/mol | -9.18 kcal/mol | 2.43 kcal/mol | 11.6 µM | 10 to 12 µM | – | – | –
Cn1c(=O)c2[nH]c(SCCCNC(=S)NCCN3CCOCC3)nc2n(C)c1=O [PARG-329] | – | – | – | – | – | micromolar affinity | fails to detect a robust interaction | –
Cn1c(=O)c2[nH]c(SCCC(=O)NS(=O)(=O)CCN3CCOCC3)nc2n(C)c1=O [PARG-345, 3-((1,3-dimethyl-2,6-dioxo-2,3,6,7-tetrahydro-1H-purin-8-yl)thio)-N-((2-morpholinoethyl)sulfonyl)propanamide] | – | – | – | – | – | micromolar affinity | fails to detect a robust interaction | ~8.3
